# Assay results reported in paper PMC5021965 (Scientific Reports, 2016).
# Like-named read-outs stand apart in the source and are kept apart here.
# Experiments:
# [1] = system: primary rat hepatocytes; assay: Hepatotoxicity in primary rat hepatocytes (MTT cell viability, LDH release); details: for effect on atorvastatin-induced cytotoxicity: primary hepatocytes of DM rats, atorvastatin 10 μM, GSH 0.5 and 2 mM, N-Acetylcysteine 0.5 and 2 mM, gemfibrozil 10 and 50 μM, ketoconazole 2 μM
# Protocol: (§1) Another subset of experimental rats (CON, HFD and DM rats) were used for the primary rat hepatocytes isolation. […] Primary hepatocytes were isolated from experimental rats in a modified two-step collagenase perfusion method as previously reported. An aliquot of the hepatocyte suspension (at a density of 2.5 × 10^5/ml) was seeded in collagen-precoated plates. Following 4-h incubation, the medium was replaced with 500 μl fresh cultured medium. Twenty-four hours after plating, the medium was removed and the hepatocytes were overlaid with BD matrigel (0.25 mg/ml) in feeding medium (DMEM containing […] dexamethasone and 1% ITS) and cultured for another 24 h at 37 °C in a humidified atmosphere containing 5% CO2 for following experiments.
# (§2) ROS generation was simultaneously measured using DCFH-DA as a fluorescent probe.
# [2] = system: primary rat hepatocytes; assay: ROS generation in primary rat hepatocytes (DCFH-DA probe); type: cell-based; details: primary hepatocytes of DM rats, atorvastatin 10 μM; GSH 0.5 and 2 mM, N-Acetylcysteine 0.5 and 2 mM, gemfibrozil 10 and 50 μM, ketoconazole 2 μM
# Protocol: as §1, §2
# [3] = system: diabetic rats
# Protocol: Briefly, experimental rats were assigned randomly to three groups: control (CON) group (n = 5), high-fat diet (HFD) group (n = 5) and diabetic (DM) group (n = 20). The CON rats were fed on normal chow while both HFD rats and DM rats were fed on high-fat diet (TROPHIC Animal Feed High-tech Co. Ltd, Nantong, China). After six-week of dietary manipulation, DM rats intraperitoneally (i.p.) received a single dose of STZ (35 mg/kg).
# The diabetic rats were randomly divided into four groups (n = 5 for each group). The first group served as control group (DM).
# Following last dose, rats, fasted overnight, were anesthetized with diethyl ether and blood samples were collected for measurement of blood chemistry. Then, the animals were sacrificed; the liver samples were harvested for standard histology, hepatic biochemical measurement and Western blot.
# [4] = system: HepG2 cells; assay: Hepatotoxicity of atorvastatin in HepG2 cells (MTT); details: 10 μM, 24 h
# Protocol: (§3) The cells were cultured in DMEM containing 10% FBS (fetal bovine serum), non-essential amino acids, antibiotics (100 IU/ml penicillin and 100 μg/ml streptomycin), 2 mM L-glutamine, and 3.7 g/L NaHCO3 in a humidified incubator of 5% CO2 and 95% air atmosphere at 37 °C.
# [5] = system: HepG2 cells; assay: Atorvastatin metabolism in HepG2 cells (formation of ortho-hydroxy atorvastatin); details: HepG2, ketoconazole 2 and 10 μM; atorvastatin 30 μM, 30 min
# Protocol: as §3
# [6] = system: normal rats and phenobarbital pre-treated rats; assay: Atorvastatin-induced hepatotoxicity in normal rats and rats pre-treated with phenobarbital; details: phenobarbital i.p. 80 mg/kg with atorvastatin 10, 20, 40 mg/kg for 10 days
# Protocol: For normal rats, they were randomly divided into vehicle (CON) rats, low-dose treatment (AL) rats, middle-dose treatment (AM) rats and high-dose treatment (AH) rats (n = 5 for each group). CON rats orally received daily dose of vehicle. […] The serum biochemical parameters, liver weight and ROS levels were measured as described above.
# [7] = system: hepatic Cyp3a; assay: Activity and expression of hepatic Cyp3a in phenobarbital-treated rats; details: PB rats, phenobarbital i.p. 80 mg/kg
# Protocol: as §1
# Repaglinide (20 μM) and midazolam (10 μM) were used as probe substrates to identify the activities of SLCO1B1 and Cyp3a, respectively.
# Total rat liver extract was prepared in RIPA lysis buffer containing 1 mM PMSF to measure protein levels of Cyp3a and SLCO1B1. Protein concentrations were measured by the BCA protein assay kit. 50 μg proteins were separated on a SDS-polyacrylamide gel electrophoresis and transferred onto polyvinylidene fluoride membranes (Millipore Corporation, Billerica, MA, USA).
# [8] = system: hepatic SLCO1B1; assay: Activity and expression of hepatic SLCO1B1 in phenobarbital-treated rats; type: in vivo, rat; details: PB rats, phenobarbital i.p. 80 mg/kg
# [9] = phenobarbital i.p. 80 mg/kg
# Protocol: Blood samples were collected under light ether anesthesia via the oculi chorioideae vein at 5, 10, 20, 30, 45, 60, 120, 240, 360, and 720 min after first dose and last dose. After 3 or 4 samplings, the appropriate amount of normal saline was administered to the rats via the tail vein to compensate for blood loss. The blood collected was mixed properly with the anticoagulant and centrifuged at 4000 rpm for 10 min. The plasma was separated and stored at −80 °C until drug analysis.
# The pharmacokinetic parameters were calculated using noncompartmental analysis on Phenix WinNonlin 6.1 (Pharsight, St. Louis, MO). All values were expressed as mean ± S.D. Results were analyzed using one-way analysis of variance (ANOVA) followed by Tukey’s post hoc test. Differences among groups were determined by nonparametric test when necessary. Statistical significance was assumed at P < 0.05.
# [10] = DM-AL: diabetic rats, 10 mg/kg, 10 days
# [11] = DM-AM: diabetic rats, 20 mg/kg, 10 days
# [12] = diabetic rats, 10 and 20 mg/kg, 10 days
# [13] = serum, DM-AL: diabetic rats, 10 mg/kg, 10 days
# [14] = serum, DM-AM: 20 mg/kg, 10 days
# [15] = serum, DM-AM: diabetic rats, 20 mg/kg, 10 days
smiles,measurement,setting,value
"N[C@@H](CCC(=O)N[C@@H](CS)C(=O)NCC(=O)O)C(=O)O [GSH, Glutathione]",effect on atorvastatin-induced cytotoxicity,[1],concentration-dependently reversed
same,effect on atorvastatin-induced production of ROS,[2],concentration-dependently reversed
CC(=O)N[C@@H](CS)C(=O)O [N-Acetylcysteine],effect on atorvastatin-induced cytotoxicity,[1],concentration-dependently reversed
same,effect on atorvastatin-induced production of ROS,[2],concentration-dependently reversed
"CC(C)c1c(C(=O)Nc2ccccc2)c(-c2ccccc2)c(-c2ccc(F)cc2)n1CC[C@@H](O)C[C@@H](O)CC(=O)O [atorvastatin, Atorvastatin calcium]",cytotoxicity in primary hepatocytes of PB rats,"[1]; phenobarbital pre-treated rats, 96 h",severe cytotoxicity
same,Body weight,"[3]; DM-AL: diabetic rats, 10 mg/kg atorvastatin orally once daily for 10 days",269.3 ± 5.3 g
same,FBG,[3]; [10],18.38 ± 1.75 mM
same,FINS,[3]; [10],32.65 ± 2.15 mIU/L
same,HOMA-IR,[3]; [10],27.56 ± 2.01
same,Liver weight (% of body weight),[3]; [10],6.94 ± 0.95 % of body weight
same,Spleen weight (% of body weight),[3]; [10],0.264 ± 0.027 % of body weight
same,liver weight (% of body weight) compared with DM rats,"[3]; DM-AM: 20 mg/kg, 10 days",almost doubled
same,Body weight,"[3]; DM-AM: diabetic rats, 20 mg/kg atorvastatin orally once daily for 10 days",250.8 ± 22.4 g
same,FBG,[3]; [11],18.34 ± 1.60 mM
same,FINS,[3]; [11],32.51 ± 4.45 mIU/L
same,HOMA-IR,[3]; [11],26.92 ± 2.52
same,Liver weight (% of body weight),[3]; [11],10.60 ± 2.25 % of body weight
same,Spleen weight (% of body weight),[3]; [11],0.392 ± 0.033 % of body weight
same,MDA levels in liver,[3]; [12],increased
same,"SOD, CAT, GSH-pX and SDH activities in liver",[3]; [12],dose-dependently lowered
same,histopathological damage scores,"[3]; liver, DM-AL (10 mg/kg) and DM-AM (20 mg/kg) rats",Higher
same,TC,[3]; [13],4.02 ± 0.71 mM
same,TG,[3]; [13],5.40 ± 0.50 mM
same,AKP level compared with DM rats,[3]; [14],approximately doubled
same,ALT level compared with DM rats,[3]; [14],approximately doubled
same,AST level compared with DM rats,[3]; [14],approximately doubled
same,DBIL level compared with DM rats,[3]; [14],almost tripled
same,TBIL level compared with DM rats,[3]; [14],almost tripled
same,level of Alb,[3]; [14],significant decrease
same,TC,[3]; [15],3.42 ± 0.52 mM
same,TG,[3]; [15],3.75 ± 0.70 mM
same,cell viability,[4],little affected
Cc1ccc(C)c(OCCCC(C)(C)C(=O)O)c1 [gemfibrozil],effect on atorvastatin-induced cytotoxicity,[1],concentration-dependently reversed
same,effect on atorvastatin-induced production of ROS,[2],concentration-dependently reversed
"CC(=O)N1CCN(c2ccc(OCC3COC(Cn4ccnc4)(c4ccc(Cl)cc4Cl)O3)cc2)CC1 (stereo not drawn) [ketoconazole, Ketoconazole]",effect of co-incubation on atorvastatin metabolism,[5],concentration-dependently inhibited
"CCC1(c2ccccc2)C(=O)NC(=O)NC1=O [phenobarbital, Phenobarbital]",effect of co-administration on atorvastatin hepatotoxicity,[6],markedly potentiated
same,activities and expressions of hepatic Cyp3a,[7],significantly increased
same,activities and expressions of hepatic SLCO1B1,[8],significantly increased
same,effect on plasma exposure of atorvastatin in rats,[9],decreased
